Laboratory results from ChEMBL document CHEMBL1140860, “Synthesis and evaluation of dihydroartemisinin and dihydroartemisitene acetal dimers showing anticancer and antiprotozoal activity” (Bioorg Med Chem, 2009).

Experiments:
CCRF-CEM = test: Growth inhibition of human CCRF-CEM cells after 48 hrs by sulforhodamine B assay; format: functional
K562 = test: Growth inhibition of human K562 cells after 48 hrs by sulforhodamine B assay; format: functional; settings: K562, 48 h
MOLT-4 = test: Growth inhibition of human MOLT4 cells after 48 hrs by sulforhodamine B assay; format: functional; settings: MOLT-4, 48 h
[1] = Growth inhibition of human […] cells after 48 hrs by sulforhodamine B assay; format: functional
SR = test: Growth inhibition of human SR cells after 48 hrs by sulforhodamine B assay; format: functional
A549 = test: Growth inhibition of human A549 cells after 48 hrs by sulforhodamine B assay; format: functional; settings: A549, 48 h
HCC 2998 = test: Growth inhibition of human HCC2998 cells after 48 hrs by sulforhodamine B assay; format: functional; settings: HCC 2998, 48 h
HCT-116 = test: Growth inhibition of human HCT116 cells after 48 hrs by sulforhodamine B assay; format: functional; settings: HCT-116, 48 h
HCT-15 = test: Growth inhibition of human HCT15 cells after 48 hrs by sulforhodamine B assay; format: functional; settings: HCT-15, 48 h
HT-29 = test: Growth inhibition of human HT-29 cells after 48 hrs by sulforhodamine B assay; format: functional; settings: HT-29, 48 h
KM12 = test: Growth inhibition of human KM12 cells after 48 hrs by sulforhodamine B assay; format: functional; settings: KM12, 48 h
SW-620 = test: Growth inhibition of human SW620 cells after 48 hrs by sulforhodamine B assay; format: functional; settings: SW-620, 48 h
SF-268 = test: Growth inhibition of human SF268 cells after 48 hrs by sulforhodamine B assay; format: functional; settings: SF-268, 48 h
SF-295 = test: Growth inhibition of human SF295 cells after 48 hrs by sulforhodamine B assay; format: functional; settings: SF-295, 48 h
SF-539 = test: Growth inhibition of human SF539 cells after 48 hrs by sulforhodamine B assay; format: functional; settings: SF-539, 48 h
SNB-19 = test: Growth inhibition of human SNB19 cells after 48 hrs by sulforhodamine B assay; format: functional; settings: SNB-19, 48 h
SNB-75 = test: Growth inhibition of human SNB75 cells after 48 hrs by sulforhodamine B assay; format: functional; settings: SNB-75, 48 h
U-251 = test: Growth inhibition of human U251 cells after 48 hrs by sulforhodamine B assay; format: functional; settings: U-251, 48 h
LOX IMVI = test: Growth inhibition of human LOXIMVI cells after 48 hrs by sulforhodamine B assay; format: functional
M14 = test: Growth inhibition of human M14 cells after 48 hrs by sulforhodamine B assay; format: functional; settings: M14, 48 h
Malme-3M = test: Growth inhibition of human MALME-3M cells after 48 hrs by sulforhodamine B assay; format: functional
SK-MEL-2 = test: Growth inhibition of human SK-MEL-2 cells after 48 hrs by sulforhodamine B assay; format: functional; settings: SK-MEL-2, 48 h
SK-MEL-28 = test: Growth inhibition of human SK-MEL-28 cells after 48 hrs by sulforhodamine B assay; format: functional; settings: SK-MEL-28, 48 h
SK-MEL-5 = test: Growth inhibition of human SK-MEL-5 cells after 48 hrs by sulforhodamine B assay; format: functional; settings: SK-MEL-5, 48 h
UACC-257 = test: Growth inhibition of human UACC257 cells after 48 hrs by sulforhodamine B assay; format: functional; settings: UACC-257, 48 h
UACC-62 = test: Growth inhibition of human UACC62 cells after 48 hrs by sulforhodamine B assay; format: functional; settings: UACC-62, 48 h
IGROV-1 = test: Growth inhibition of human IGROV1 cells after 48 hrs by sulforhodamine B assay; format: functional; settings: IGROV-1, 48 h
OVCAR-3 = test: Growth inhibition of human OVCAR-3 cells after 48 hrs by sulforhodamine B assay; format: functional; settings: OVCAR-3, 48 h
OVCAR-4 = test: Growth inhibition of human OVCAR4 cells after 48 hrs by sulforhodamine B assay; format: functional; settings: OVCAR-4, 48 h
OVCAR-5 = test: Growth inhibition of human OVCAR5 cells after 48 hrs by sulforhodamine B assay; format: functional; settings: OVCAR-5, 48 h
OVCAR-8 = test: Growth inhibition of human OVCAR8 cells after 48 hrs by sulforhodamine B assay; format: functional; settings: OVCAR-8, 48 h
SK-OV-3 = test: Growth inhibition of human SKOV3 cells after 48 hrs by sulforhodamine B assay; format: functional; settings: SK-OV-3, 48 h
786-0 = test: Growth inhibition of human 786-0 cells after 48 hrs by sulforhodamine B assay; format: functional; settings: 786-0, 48 h
A498 = test: Growth inhibition of human A498 cells after 48 hrs by sulforhodamine B assay; format: functional; settings: A498, 48 h
ACHN = test: Growth inhibition of human ACHN cells after 48 hrs by sulforhodamine B assay; format: functional
CAKI-1 = test: Growth inhibition of human Caki1 cells after 48 hrs by sulforhodamine B assay; format: functional; settings: CAKI-1, 48 h
RXF 393 = test: Growth inhibition of human RXF393 cells after 48 hrs by sulforhodamine B assay; format: functional; settings: RXF 393, 48 h
SN12C = test: Growth inhibition of human SN12C cells after 48 hrs by sulforhodamine B assay; format: functional
TK-10 = test: Growth inhibition of human TK10 cells after 48 hrs by sulforhodamine B assay; format: functional; settings: TK-10, 48 h
PC-3 = test: Growth inhibition of human PC3 cells after 48 hrs by sulforhodamine B assay; format: functional; settings: PC-3, 48 h
DU-145 = test: Growth inhibition of human DU145 cells after 48 hrs by sulforhodamine B assay; format: functional; settings: DU-145, 48 h
MCF7 = test: Growth inhibition of human MCF7 cells after 48 hrs by sulforhodamine B assay; format: functional; settings: MCF7, 48 h
NCI/ADR-RES = test: Growth inhibition of human NCI/ADR-RES cells after 48 hrs by sulforhodamine B assay; format: functional
MDA-MB-231 = test: Growth inhibition of human MDA-MB-231 cells after 48 hrs by sulforhodamine B assay; format: functional; settings: MDA-MB-231, 48 h
[2] = Growth inhibition of human Hs 578T cells after 48 hrs by sulforhodamine B assay; format: functional
MDA-MB-435 = test: Growth inhibition of human MDA-MB-435 cells after 48 hrs by sulforhodamine B assay; format: functional; settings: MDA-MB-435, 48 h
MDA-N = test: Growth inhibition of human MDA-N cells after 48 hrs by sulforhodamine B assay; format: functional
BT-549 = test: Growth inhibition of human BT549 cells after 48 hrs by sulforhodamine B assay; format: functional; settings: BT-549, 48 h
T47D = test: Growth inhibition of human T47D cells after 48 hrs by sulforhodamine B assay; format: functional
Plasmodium falciparum [3] = test: Antimalarial activity after 72 hrs against chloroquine-sensitive Plasmodium falciparum D6 infected in erythrocytes by LDH assay; format: functional, organism-based; settings: D6, 72 h
[4] = Selectivity index, ratio of TC50 for african green monkey (Cercopithecus aethiops) Vero cells to IC50 for chloroquine-sensitive Plasmodium falciparum D6; format: toxicity, cell-based
Plasmodium falciparum [5] = test: Antimalarial activity after 72 hrs against chloroquine-resistant Plasmodium falciparum W2 infected erythrocytes by LDH assay; format: functional, organism-based; settings: W2, 72 h
[6] = Selectivity index, ratio of TC50 for african green monkey (Cercopithecus aethiops) Vero cells to IC50 for chloroquine-resistant Plasmodium falciparum W2; format: toxicity, cell-based
[7] = Cytotoxicity against african green monkey Vero cells after 48 hrs by neutral red assay; format: cell-based; settings: chlorocebus sabaeus, read-out: TC50
EKVX = test: Growth inhibition of human EKVX cells after 48 hrs by sulforhodamine B assay; format: functional
HOP-62 = test: Growth inhibition of human HOP62 cells after 48 hrs by sulforhodamine B assay; format: functional; settings: HOP-62, 48 h
HOP-92 = test: Growth inhibition of human HOP92 cells after 48 hrs by sulforhodamine B assay; format: functional; settings: HOP-92, 48 h
NCI-H226 = test: Growth inhibition of human NCI-H226 cells after 48 hrs by sulforhodamine B assay; format: functional; settings: NCI-H226, 48 h
NCI-H23 = test: Growth inhibition of human NCI-H23 cells after 48 hrs by sulforhodamine B assay; format: functional; settings: NCI-H23, 48 h
NCI-H322M = test: Growth inhibition of human NCI-H322M cells after 48 hrs by sulforhodamine B assay; format: functional
NCI-H460 = test: Growth inhibition of human NCI-H460 cells after 48 hrs by sulforhodamine B assay; format: functional; settings: NCI-H460, 48 h
NCI-H522 = test: Growth inhibition of human NCI-H522 cells after 48 hrs by sulforhodamine B assay; format: functional; settings: NCI-H522, 48 h
COLO 205 = test: Growth inhibition of human COLO205 cells after 48 hrs by sulforhodamine B assay; format: functional; settings: COLO 205, 48 h

`C[C@H]1[C@@H](OCCCO[C@H]2O[C@@H]3O[C@@]4(C)CC[C@H]5[C@H](C)CC[C@@H]([C@H]2C)[C@@]35OO4)O[C@@H]2O[C@@]3(C)CC[C@H]4[C@H](C)CC[C@@H]1[C@@]24OO3` gave a GI50 (CCRF-CEM) of 1.31 µM, a GI50 (K562) greater than 100 µM and a GI50 (MOLT-4) of 5.95 µM. The GI50 [1] was 4.45 µM, the GI50 (SR) was 1.98 µM and the GI50 (A549) was 28.7 µM. For the same compound, the GI50 (HCC 2998) was 9.65 µM, the GI50 (HCT-116) was 0.545 µM and the GI50 (HCT-15) was 0.403 µM. For the same compound, the GI50 (HT-29) was 0.522 µM, the GI50 (KM12) was 0.517 µM and the GI50 (SW-620) was 0.522 µM. It also gave a GI50 (SF-268) greater than 100 µM, a GI50 (SF-295) greater than 100 µM and a GI50 (SF-539) greater than 100 µM. The GI50 (SNB-19) was greater than 100 µM, the GI50 (SNB-75) was greater than 100 µM and the GI50 (U-251) was greater than 100 µM. It also gave a GI50 (LOX IMVI) greater than 100 µM, a GI50 (M14) greater than 100 µM and a GI50 (Malme-3M) greater than 100 µM. The GI50 (SK-MEL-2) was greater than 100 µM, the GI50 (SK-MEL-28) was greater than 100 µM and the GI50 (SK-MEL-5) was 30.5 µM. For the same compound, the GI50 (UACC-257) was greater than 100 µM, the GI50 (UACC-62) was 17.9 µM and the GI50 (IGROV-1) was 7.68 µM. It also gave a GI50 (OVCAR-3) greater than 100 µM, a GI50 (OVCAR-4) greater than 100 µM and a GI50 (OVCAR-5) greater than 100 µM. It also gave a GI50 (OVCAR-8) greater than 100 µM, a GI50 (SK-OV-3) greater than 100 µM and a GI50 (786-0) of 1.41 µM. For the same compound, the GI50 (A498) was 14.7 µM, the GI50 (ACHN) was 1.47 µM and the GI50 (CAKI-1) was 6.95 µM. The GI50 (RXF 393) was 8 µM, the GI50 (SN12C) was 4.03 µM and the GI50 (TK-10) was 2.41 µM. For the same compound, the GI50 (PC-3) was 3.08 µM, the GI50 (DU-145) was 100 µM and the GI50 (MCF7) was 0.652 µM. It also gave a GI50 (NCI/ADR-RES) of 3.64 µM, a GI50 (MDA-MB-231) of 7.34 µM and a GI50 [2] of 0.62 µM. For the same compound, the GI50 (MDA-MB-435) was 0.694 µM, the GI50 (MDA-N) was 1.58 µM and the GI50 (BT-549) was 2.79 µM. For the same compound, the GI50 (T47D) was 0.497 µM, the IC50 (Plasmodium falciparum [3]) was 14 µM and the selectivity ratio [4] was greater than 21. For the same compound, the IC50 (Plasmodium falciparum [5]) was 8.5 µM, the selectivity ratio [6] was 35 and the CC50 at 48 h [7] was 296 µM. The GI50 (EKVX) was 5.49 µM, the GI50 (HOP-62) was greater than 100 µM and the GI50 (HOP-92) was greater than 100 µM. For the same compound, the GI50 (NCI-H226) was greater than 100 µM, the GI50 (NCI-H23) was greater than 100 µM and the GI50 (NCI-H322M) was greater than 100 µM. It also gave a GI50 (NCI-H460) of 31.2 µM, a GI50 (NCI-H522) of 7.13 µM and a GI50 (COLO 205) of 0.45 µM.
